Reference: patent publication EP1370276B1, “INTERCELLULAR COMMUNICATION FACILITATING COMPOUNDS AND THEIR MEDICAL USE” (Zealand Pharma A/S, priority 2001, dated 2002)
[ ]: non-standard residue; d: D form. Hyp = O=C(O)[C@@H]1C[C@@H](O)CN1

Tests used:
[1] = test system: calcium-induced arrythmias; test: Calcium-induced arrhythmia model in mice (time to 2nd degree AV-block); format: in vivo; conditions: for CaCl2 mice Score / CaCl2 mice In vivo, %: calcium chloride induced arrythmia model; for CaCl2 mice Score: no key for the score
Experimental: The antiarrhythmic effects of compounds of this invention were tested in an in vivo model of calcium-induced arrythmias according to the model of Lynch et al. ^[37]. […]. Commercial solutions of hypnorm and midazolam were diluted 1:1 in distilled water and one part diluted Hypnorm® is mixed with one part diluted midazolam.
The anaesthesia was induced by s.c. administration in a dose of […]. An i.v. cannula was inserted into the tail vein. The lead II ECG signal was recorded continuously by positioning of a stainless steel ECG electrodes on the right forelimb and on the left hind limb. The ground electrode was placed on the right hind limb. The signal was amplified (x 5.000-10.000) and filtered (0.1-150 Hz) via a Hugo Sachs Electronic model 689 ECG module. The analogue signal was digitised via a 12 bit data acquisition board (Data Translation model DT321) and sampled at 1000 Hz using the Notocord HEM 3.1 software for Windows NT. After a 10-min equilibration period, the test sample of drug was injected into the tail vein. Mice pre-treated with vehicle were tested as a measure of the control level in untreated animals. The injection volume was 100 µl in all experiments. Infusion of CaCl2 (30 mg/ml, 0.1 ml/min ≈ 100 mg/kg/min (calciumchlorid-2-hydrat, Riedel-de Haën, Germany)) was started 3 min after i.v. administration of drug or vehicle. The time lag to onset of 2nd degree AV-block was determined as the time from the start of CaCl2 infusion until the first arrhythmic event occured. An event of 2nd degree AV-block was defined as intermittent failure of the AV conduction characterised by a P-wave without the concomitant QRS complex.
Responses were expressed relative to the time until 2nd degree AV-block occurred in vehicle treated mice.

[2] = target: murine heart tissue preparations; test: Displacement of [125I]AAP10 from murine heart tissue preparations; format: binding, mice; conditions: displacement of 0.8 nM [125I]AAP10, filtrate; read-out: Filtrate IC50
Experimental: Hearts are excised from mice (Balb/cJ, 20 g), rinsed twice in ice-cold (0°C) 0.32 M sucrose and homogenized on ice in 10 volumes of sucrose with an Ultra Turrax homogeniser (1000 rpm) for 2 minutes. The homogenate is centrifuged at 1000 gmea" for 10 minutes at 4° C and the supernatant collected and filtrated through 4 layers of gauze. The filtrate is then centrifuged at 50,000 gmean for 45 min at 4° C and the pellet resuspended in 10 volorg. wet weight ice-cold distilled water and incubated for 60 min at 0° C and re-centrifuged at 50,000 gmean at 45 min at 4° C. The resulting pellet is resuspended in 2 vol org. wet weight of PBS (Phosphate Buffered Saline) and stored at - 80° C until use.

[3] = test system: phosphoinositol turnover in rat primary cardiomyocytes; test: Phosphoinositol turnover in primary cardiomyocyte cultures; format: cell-based; conditions: for EC50: enhancement of phospho-inositol turnover
Experimental: Neonatal Wistar rats (1-2 days old) are used. Hank's calcium- and magnesium-free balanced salt solution, buffered with 10 mM HEPES is used for washing during cell separation procedures. The hearts are excised, the ventricles isolated and the tissue cut into small pieces. The myocardial cells are isolated by stepwise enzymatic degradation with collagenase 0.05%, as described by ^[35]. After repeated rounds of centrifugation and washing, the precipitated cells are resuspended in culture medium M199 with Earle's salt, 10% NCS, penicillin (75 U/mL), and streptomycin (75 U/mL) and pre-plated in a Petri dish for 90 minutes. The non-adherent cells are collected in the culture medium and plated in multidishes at 2.5*10^5 cells/well. The cultures are kept in a water-saturated CO2-incubator at 37°C. The cardiomyocyte cultures are used for analyses after 6-7 days.
Cardiomyocyte cultures are incubated for 48 hours in culture medium containing 4 µCi/mL myo-[2-^3H]inositol to label the inositol phospholipids. On the day of analysis the medium is replaced by a buffer solution containing lithium and incubated at 37°C, as described by Meier et al. ^[36]. After at least five minutes this buffer is replaced by the same volume of buffer containing test compound and incubated for exactly 20 minutes. The reaction is stopped by rapid replacement of the buffer by ice cold 4%v/v perchloric acid (PCA) and incubation for at least 20 minutes at 0°C. The PCA-extract is neutralised and the [^3H]inosltol phosphates are separated by anion-exchange chromatography using Amprep™ columns containing 100 mg SAX Quaternary amine. The [^3H]inositol mono-phosphates are eluted and radioactivity in the fraction measured by liquid scintillation counting.
Before adding test substances to the cultures, the cells are depleted of glucose and oxygen by incubating them in a N2-atmosphere in glucose-free lithium-buffer for 10 minutes at 37°C. Control cells are incubated likewise only at normal atmospheric conditions and in a buffer containing glucose.

[4] = test system: CHO cells; test: In situ binding of [125I]AAP10 on intact CHO cells; conditions: overnight at 4° C
Experimental: CHO cells are seeded in 24-multi well dishes in a density of 7,900 cells/cm^2 (∼ 15,000 cells/well) and grown for 3 Days In Vitro (DIV) in 1 ml/well of F-12K Nutrient Mixture supplemented with 10% Foetal Calf Serum (FCS) and 1000 units penicillin/1000 µg streptomycin (pen/strep) in an atmosphere of 5% CO2 and 100% humidity at 37° C. The cell density has at that time increased to 295,000 cells/cm^2 (152 pgprot/cell ∼ 85 µgprot/well).
On the day of analysis cells are removed from the incubator and each well is washed twice with, depending on the experiment, either 2 ml pre-warmed (37 °C) or ice-cold (0 °C) D-PBS to remove serum. It is important to keep the period to a minimum during which cells are left without physiological solutions to avoid that they dry out during washing procedures. The cold washed cells are used directly for binding assays while the warm washed cells are used for experiments with glucose and oxygen deprivation.
The in situ binding is performed by a modified protocol based on the description by Koenig. […] Cells incubate overnight at 4° C to reach equilibrium. Each well, one at the time, is then rinsed rapidly with 2 x 1 ml D-PBS and left to dry.
0.25 ml of 0.5 % Triton-X-100 (v/v) is added to each well and cells left for at least 1 h to solubilize. The extract is transferred to counting vials, the wells rinsed with 0.25 ml water and the rinse extract added to the corresponding vials. The vials are counted in a γ-counter. Table 3. In situ binding, IC50 (nM).

[5] = test system: isolated perfused rabbit hearts; test: Isolated perfused rabbit heart (Langendorff), APD90 dispersion during hypokalemic ischemia; conditions: 10^-10 mol/l
[6] = test system: cAMP formation in CHO cells; test: Inhibition of forskoline stimulated cAMP formation in CHO cells; format: cell-based; conditions: 10 µM forskoline, 20 min, cells pre-treated with glucose and oxygen deprivation
Experimental: CHO cells are seeded in 96-well microtiter plates in a density of 6,000 cells/cm^2 (∼ 2,000 cells/well) and grown for 4 days in vitro in 200 µl/well of growth media as described in the previous section.
On the day of analysis cells are removed from the incubator and washed twice with 200 µl pre-warmed (37°C) D-PBS (pH 7.2) to remove serum. Cells are incubated for 10 min in glucose free D-PBS and an N2-atmosphere as described in the previous section.
CHO cells are incubated at 37° C in D-PBS (pH 7.2) containing 6 mM glucose, 2.0 mM IBMX (phospodiesterase blocker), 10 µM forskoline (stimulates cAMP formation) and increasing concentrations of test peptide. The reaction is stopped after 20 min by addition of 20 µl 0.5 M HCl and left for at least 20 min at room temperature.
The content of cAMP is analysed by mixing 20 µl of the acid cell extract into FlashPlate™ wells (NEN assay kit SMP001) containing 180 µl [^12SI]cAMP tracer solution. FlashPlates™ are incubated overnight at 4° C and plate bound radioactivity counted in TopCount (Packard Instrument). Data are calculated as described in the previous section.

[7] = In vitro plasma and serum stability, rabbit; format: in vitro ADME; conditions: 37°C
Experimental: (§1) The stability of peptides is analysed in serum and plasma. The peptides are incubated at 37°C in plasma or serum and samples taken at approx. 9 regular intervals between t=0 and t=156 min are analysed by HPLC.
This is done by subsequent injections of the drug, plasma, and a co-injection with the drug and the plasma, followed by optimisation of the LC method parameters until a satisfactory separation is obtained. Three parallel experiments are performed for each plasma type.[…] at t = 0 and incubated at 37°C (drug-plasma mixture conc. 0.1 mg/ml). Samples of 100 ml of the drug-plasma mixture are removed at appropriate intervals and the degradation stopped by precipitation of the sample with 10 ml MeCN:TFA 50:50 v/v. A control plasma sample without the drug treated in the same manner is also taken. The plasma samples are centrifuged for 15 min. at 12,000 rpm (Eppendorf centrifuge) at ambient temperature. The resulting supernatant solution is transferred to 300 ml HP autosamler vials and analyzed by HPLC. The samples are analyzed in the following order: blank, the peptide at 0.1 mg/mL, the plasma without the peptide, the three parallel samples for t = 0, the three parallel samples for t = 5 min. the three parallel samples for t = 10 min. etc. […]

[8] = In vitro plasma and serum stability, human; format: in vitro ADME; conditions: for T1/2 PLASMA, HEPARIN HUMAN: 37°C
Experimental: as §1
This is done by subsequent injections of the drug, plasma, and a co-injection with the drug and the plasma, followed by optimisation of the LC method parameters until a satisfactory separation is obtained. Three parallel experiments are performed for each plasma type.100 ml of peptide is mixed with 900 ml plasma at t = 0 and incubated at 37°C (drug-plasma mixture conc. 0.1 mg/ml). Samples of 100 ml of the drug-plasma mixture are removed at appropriate intervals and the degradation stopped by precipitation of the sample with 10 ml MeCN:TFA 50:50 v/v. A control plasma sample without the drug treated in the same manner is also taken. The plasma samples are centrifuged for 15 min. at 12,000 rpm (Eppendorf centrifuge) at ambient temperature. The resulting supernatant solution is transferred to 300 ml HP autosamler vials and analyzed by HPLC. The samples are analyzed in the following order: blank, the peptide at 0.1 mg/mL, the plasma without the peptide, the three parallel samples for t = 0, the three parallel samples for t = 5 min. the three parallel samples for t = 10 min. etc. And finally the three parallel samples for t = 0 are repeated to make sure that there have been no degradation or other failure during the analyses. The sample concentrations (peak height in mAU) are plotted vs. time and fitted to a function describing a mono exponential decay (Excel). […] Table 7. Results of in vitro stability test in plasma and serum, T1/2 in min and hrs

In the case of “H-GAG[Hyp]PY-NH2 [AAP10, reference compound]”, the “CaCl2 mice Score” value [1] is reported as 3, the In vivo activity ([1]; maximal effect, increase in time until 2nd degree AV-block relative to vehicle, i.v.) is reported as “+++ (+++ refers to >60% increase in time until arrhythmia)” and the IC50 [2] is reported as 0.0012 µM. For the same substance, the “EC50 value relative to the EC50 value for Compound 2” value ([3]; during metabolic stress induced by anoxia and glucose deprivation) was 10 fold, the “EC50 value relative to the EC50 value for Compound 2” value ([3]; during normoxia) was 200 fold and the EC50 ([3]; Glucose and oxygen deprivation) was 0.1 µM. For the same substance, the EC50 ([3]; Normal conditions) was 2 µM, the IC50 [4] was 0.13 µM and the “increase in APD90 dispersion during hypokalemic, acute myocardial ischemia” value [5] was “ineffective”. It also gave an EC50 [6] of 0.011 µM.
For cyclo(GAG[Hyp]PYN), the “CaCl2 mice In vivo, %” value [1] was 57 +/- 8%, the “CaCl2 mice Score” value [1] was 2 and the “T1/2 PLASMA, HEPARIN RABBIT” value [7] was 30 hrs ± 8%. For the same substance, the “T1/2 PLASMA, HEPARIN HUMAN” value [8] was 9 hrs ± 1% and the “Human plasma half life” value [8] was 13 h.
With cyclo(GAG[Hyp]PYQ) the “CaCl2 mice In vivo, %” value [1] was 48 +/- 14%, the “CaCl2 mice Score” value [1] was 2 and the “T1/2 PLASMA, HEPARIN RABBIT” value [7] was 14 hrs ± 2%. The “T1/2 PLASMA, HEPARIN HUMAN” value [8] was 15 hrs ± 1% and the “Human plasma half life” value [8] was 15 h.
